Like-named read-outs stand apart in the source and are kept apart here.
Legend:
[1] = test system: A549 lung cancer cell line; assay: MTT assay, 48 h continuous drug exposure, A549; assay type: cell-based, human
Experimental: (§1) Some of the C8-linked diaryl ether-PBD hybrids have been tested against eleven human tumour cell lines derived from seven cancer types (lung cancer, colon cancer, cervix, ovarian cancer, oral cancer, prostate cancer and breast cancer) as per Tata protocol as shown in Table 2. For each compound, dose response curves for each cell line were measured at a minimum of five concentrations at 10 fold dilutions. A protocol of 48 h continuous drug exposure was used and a MTT assay was used to estimate cell viability or growth. The percent of cell growth (GI50) compared with the control was calculated. Some of the compounds have been evaluated for their in vitro cytotoxicity in eleven cell lines from seven human cancer types. The results are expressed as GI50 determined relative to that of untreated control cells (Table-2).

[2] = test system: Colo205 colon cancer cell line; assay: MTT assay, 48 h continuous drug exposure, Colo205; assay type: cell-based, human
Experimental: as §1

[3] = test system: MCF7 breast cancer cell line; assay: MTT assay, 48 h continuous drug exposure, MCF7; assay type: cell-based, human
Experimental: as §1

[4] = test system: duplex-form calf thymus DNA (CT-DNA); assay: Thermal denaturation studies with calf thymus DNA (DNA binding affinity); details: [PBD]:[DNA] molar ratio 1:5, CT-DNA 100 μM, ligand 20 μM, sodium phosphate buffer pH 7.00; for (ΔTm ° C.) after incubation at 37° C. for 0 h: 0 h at 37° C.; for (ΔTm ° C.) after incubation at 37° C. for 18 h: 18 h at 37° C.
Experimental: DNA Binding Affinity of Diaryl Ether Linked PBD Hybrids: Compounds have been subjected to thermal denaturation studies with duplex-form calf thymus DNA (CT-DNA) using a modification of a reported procedure (Newman, M. S. Carcinog-compr. Surv. 1976, 1, 203; ([…].; Loy, M.; Hoffman, Carcinog-compr. […] The DNA-PBD solutions have been incubated at 37° C. for 0 and 18 h prior to analysis. […] DNA helix→coil transition temperatures (Tm) have been obtained from the maxima in the d(A260)/dT derivative plots. […] The DNA binding activity for these novel C8-linked diaryl ether PBD hybrids has been examined by thermal denaturation studies using calf thymus (CT) DNA. […] The data for the compounds are included in Table 1 for comparison.

[5] = test system: A2780 ovarian cancer cell line; assay: MTT assay, 48 h continuous drug exposure, A2780; assay type: cell-based, human; details: ovarian cancer cell line, 48 h exposure, MTT, read-out: GI50 A2780
Experimental: (§2) For each compound, dose response curves for each cell line were measured at a minimum of five concentrations at 10 fold dilutions. A protocol of 48 h continuous drug exposure was used and a MTT assay was used to estimate cell viability or growth. The percent of cell growth (GI50) compared with the control was calculated.

[6] = test system: Gurav oral cancer cell line; assay: MTT assay, 48 h continuous drug exposure, Gurav; assay type: cell-based, human; details: oral cancer cell line, 48 h exposure, MTT, read-out: GI50 Gurav
Experimental: as §2

[7] = test system: ZR-751 breast cancer cell line; assay: MTT assay, 48 h continuous drug exposure, ZR-751; assay type: cell-based, human; details: breast cancer cell line, 48 h exposure, MTT, read-out: GI50 ZR-751
Experimental: as §2

[8] = test system: DWD oral cancer cell line; assay: MTT assay, 48 h continuous drug exposure, DWD; assay type: cell-based, human; details: oral cancer cell line, 48 h exposure, MTT, read-out: GI50 DWD
Experimental: as §2

[9] = test system: SiHa Cervix cancer cell line; assay: MTT assay, 48 h continuous drug exposure, SiHa; assay type: cell-based, human; details: Cervix cancer cell line, 48 h exposure, MTT, read-out: GI50 SiHa
Experimental: as §2

[10] = test system: Hop62 lung cancer cell line; assay: MTT assay, 48 h continuous drug exposure, Hop62; assay type: cell-based, human; details: lung cancer cell line, 48 h exposure, MTT, read-out: GI50 Hop62
Experimental: as §2

[11] = test system: PC3 prostrate cancer cell line; assay: MTT assay, 48 h continuous drug exposure, PC3; assay type: cell-based, human; details: prostrate cancer cell line, 48 h exposure, MTT, read-out: GI50 PC3
Experimental: as §2

[12] = Homo sapiens, A549, 48 h exposure
[13] = Homo sapiens, COLO 205, 48 h exposure
[14] = Homo sapiens, MCF7, 48 h exposure

Row | Compound | (ΔTm ° C.) after incubation at 37° C. for 0 h [4] [°C] | (ΔTm ° C.) after incubation at 37° C. for 18 h [4] [°C] | GI50 [5] [nM] | GI50 ([1]; 48 h exposure) [nM] | GI50 [6] [nM] | GI50 [7] [nM] | GI50 [8] [nM] | GI50 ([2]; 48 h exposure) [nM] | GI50 ([3]; 48 h exposure) [nM] | GI50 [9] [nM] | GI50 [10] [nM] | GI50 [11] [nM] | further results
1 | COc1ccc(Oc2ccc(O)cc2N)cc1OC [5b, 3-amino-4-(3,4-dimethoxyphenoxy)phenol, reference compound] | 0.1 | 0.2 |  |  |  |  |  |  |  |  |  |  | GI50 [1, 12]: > 50000 nM; GI50 [2, 13]: > 50000 nM; GI50 [3, 14]: > 50000 nM
2 | COc1ccc(Oc2ccc(C(=O)N3CCNCC3)cc2N)cc1OC [7b, [3-amino-4-(3,4-dimethoxyphenoxy)phenyl](piperazino)methanone, reference compound] | 0.2 | 0.5 |  |  |  |  |  |  |  |  |  |  | GI50 [1, 12]: > 50000 nM; GI50 [2, 13]: > 50000 nM; GI50 [3, 14]: > 50000 nM
3 | COc1ccc(Oc2cc(OCCCCCOc3cc4c(cc3OC)C(=O)N3CCC[C@H]3C=N4)ccc2N)cc1 [10g, 7-Methoxy-(8-5-[4-amino-3-(4-methoxyphenoxy)phenoxy]pentyloxy)-(11aS)-1,2,3,11a-tetrahydro-5H-pyrrolo[2,1-c][1,4]benzodiazepin-5-one] | 2.9 | 3.6 | 2300 | 2840 | 2430 | 3100 | 2400 | 1500 | 2300 | 1560 | 2100 | 2840 | 
4 | COc1ccc(Oc2cc(OCCCCCOc3cc4c(cc3OC)C(=O)N3CCC[C@H]3C=N4)ccc2N)cc1OC [11g, 7-Methoxy-(8-5-[4-amino-3-(3,4-dimethoxyphenoxy)phenoxy]pentyloxy)-(11aS)-1,2,3,11a-tetrahydro-5H-pyrrolo[2,1-c][1,4]benzodiazepin-5-one] | 4.1 | 5.5 | 170 | 2010 | 160 | 2500 | 180 | 170 | 160 | 1990 | 2430 | 2250 | 
5 | COc1cc2c(cc1OCCCCCOc1ccc(N)c(Oc3cc(OC)c(OC)c(OC)c3)c1)N=C[C@@H]1CCCN1C2=O [12g, 7-Methoxy-(8-5-[4-amino-3-(3,4,5-trimethoxyphenoxy)phenoxy]pentyloxy)-(11aS)-1,2,3,11a-tetrahydro-5H-pyrrolo[2,1-c][1,4]benzodiazepin-5-one] | 4.2 | 5.1 | 170 | 190 | 170 | 2100 | 170 | 160 | 160 | 2860 | 2860 | 2190 | 
6 | COc1ccc(Oc2ccc(OCCCCCOc3cc4c(cc3OC)C(=O)N3CCC[C@H]3C=N4)cc2I)cc1 [16c] | 3.6 | 4.6 | 2300 | 2700 | 2230 | 3300 | 2600 | 2220 | 2100 | 1420 | 1500 | 2120 | 
7 | COc1ccc(Oc2ccc(OCCCCCOc3cc4c(cc3OC)C(=O)N3CCC[C@H]3C=N4)cc2I)cc1OC [17c] | 3.9 | 4.8 | 2800 | 2450 | 2270 | 3800 | 2700 | 2260 | 2600 | 2350 | 1120 | 2560 | 
8 | COc1ccc(Oc2cc(OCCCCCOc3cc4c(cc3OC)C(=O)N3CCC[C@H]3C=N4)ccc2I)cc1OC [17g, 7-Methoxy-(8-5-[4-iodo-3-(3,4-dimethoxyphenoxy)phenoxy]pentyloxy)-(11aS)-1,2,3,11a-tetrahydro-5H-pyrrolo[2,1-c][1,4]benzodiazepin-5-one] | 4.3 | 5.1 | 180 | 1650 | 190 | 1950 | 180 | 2200 | < 100 | 190 | 2250 | 170 | 
9 | COc1cc2c(cc1OCCCCCOc1ccc(Oc3cc(OC)c(OC)c(OC)c3)c(I)c1)N=C[C@@H]1CCCN1C2=O [18c] | 4.6 | 5.5 | 3100 | 3040 | 2680 | 2780 | 3000 | 3120 | 3600 | 2220 | 2010 | 2570 | 
10 | COc1ccc(Oc2cccc(OCCCCCOc3cc4c(cc3OC)C(=O)N3CCC[C@H]3C=N4)c2[N+](=O)[O-])cc1 [19g, 7-Methoxy-(8-3-[3-(4-methoxyphenoxy)-2-nitrophenoxy]pentyloxy)-(11aS)-1,2,3,11a-tetrahydro-5H-pyrrolo[2,1-c][1,4]benzodiazepin-5-one] | 4.9 | 5.8 | 2300 | 2220 | 2260 | 2500 | 2300 | 170 | 2000 | 1620 | 2500 | 2840 | 
11 | COc1cccc2c1C(=O)c1c(O)c3c(c(O)c1C2=O)C[C@@](O)(C(=O)CO)C[C@@H]3O[C@H]1C[C@H](N)[C@H](O)[C@H](C)O1 [ADR, adriamycin, reference compound] |  |  |  |  |  |  |  |  |  |  |  |  | GI50 ([5]; Homo sapiens, A2780): < 100 nM; GI50 [1, 12]: < 100 nM; GI50 ([6]; Homo sapiens, Gurav): < 100 nM; GI50 ([7]; Homo sapiens, ZR-75-1): 110 nM; GI50 ([8]; Homo sapiens): 120 nM; GI50 [2, 13]: < 100 nM; GI50 [3, 14]: 130 nM; GI50 ([9]; Homo sapiens, SiHa): 160 nM; GI50 ([10]; Homo sapiens, HOP-62): 150 nM; GI50 ([11]; Homo sapiens): 160 nM

— patent US8809321B2, “Diaryl ether linked pyrrolo [2,1-c][1,4] benzodiazepine hybrids and process for the preparation thereof” (Council of Scientific and Industrial Research, priority 2011, dated 2014)
